From a melting point compilation (Tetko et al.; mined from patent text by program, amines drawn as free bases though some values may be those of a salt)

| melting point [°C] | SMILES |
| --- | --- |
| 167 to 169 | CC(=O)C1CCC2C3CCC4=CC(=O)C=CC4(C)C3C=CC12C (stereo not given) |
| 154 to 156 | CCN(CC)c1ccc(C2(N(c3ccccc3)c3ccc(N(C)C)cc3)OC(=O)c3ccccc32)c(C)c1 (stereo not given) |
| 171 to 173 | CC1CC(=O)N(CCO)N=C1c1ccc2c(c1)CCC(=O)N2C (stereo not given) |
| 271 | CCCn1c(=O)c2[nH]c(/C=C/c3ccc(OC)c(C)c3C)nc2n(CCC)c1=O |
| 132 to 135 | CCc1cc2c(Sc3nnc(C)s3)ncnc2s1 |
| 186 | OC1CSC(Oc2ccc(-c3ccncc3)nc2Cl)C(O)C1O (stereo not given) |
| 138 to 140 | Cc1cc2c(Cl)cc(F)c(-c3ccc(C(F)(F)F)n(C)c3=O)c2o1 |
| 101 to 104 | CC(O)C#CC1(O)C(C)C=CCC1(C)C (stereo not given) |
| 149 | CN1C(=O)Cc2cc(Br)cnc21 |
| 128 to 130 | CCCCNC(=O)NS(=O)(=O)c1cc(I)ccc1C(=O)OC |
| 136 to 137 | O=C1O[C@@H](c2ccc(F)cc2)[C@@H](Cc2ccc(C(F)(F)F)cc2)N1Cc1cccc2ccccc12 (racemic) |
| 88 to 90 | O=C(O)c1ccccc1CCc1cccc(Br)c1 |
| 104 to 105 | CCOC(=O)C1CCn2c(cc3cc(OC)ccc32)C1 (stereo not given) |
| 181 to 182 | C[C@H]1c2cc(F)ccc2-c2ccc(F)cc2N1S(=O)(=O)c1cccc(O)c1 |
| 190 to 192 | CC1CNc2c([N+](=O)[O-])cnn2C1 (stereo not given) |
| 192 to 195 | CS(=O)(=O)c1ccc(N2C=CC(N3CCCC3)C(=O)N2c2ccc(F)cc2)cc1 (stereo not given) |
| 99 to 100 | COC(=O)NNC(C)=S |
| 220 | Cc1cc(C)cc(Nc2ccc(Nc3ccccc3)c3c2C(=O)c2ccccc2C3=O)c1 |
| 105 | Cc1ccc(S(=O)(=O)Oc2cc(C(C)(C)C)c(SC3=C(O)CC(CCc4ccc(O)cc4)(C4CCCCC4)OC3=O)cc2C)cc1 (stereo not given) |
| 192 | O=C(O)C(=NOCc1cccnc1)c1csc(NC(c2ccccc2)(c2ccccc2)c2ccccc2)n1 |
| 162 to 163 | CC/C(=C(\c1ccc(/C=C/C(=O)O)cc1)c1ccc(OC(=O)CCC(F)(F)F)cc1)c1ccccc1 |
| 112 | CCCCN(CCCC)c1ccc2cc(Cl)cnc2c1C#N |
| 269 to 271 | CC(=O)NC[C@H]1CN(c2ccc(-n3cnnc3S)c(F)c2)C(=O)O1 |
| 196 to 198 | CC(C)(C)OC(=O)N1CCC(Oc2cccc3[nH]ncc23)C1 (stereo not given) |

| melting point [°C] | SMILES |
| --- | --- |
| 230 to 233 | NC(C=C(CP(=O)(O)O)c1ccccc1)C(=O)O (stereo not given) |
| 102 to 104 | CC(C)(C)OC(=O)N1CCC(CCC(=O)N2CCC[C@@H](C(=O)O)C2)CC1 |
| 144 to 147 | CCOc1cc2c(Cl)cc(C)nc2nc1C |
| 131 to 132 | CC1(C)CC(=O)C(C(=O)Nc2cc(F)cc(F)c2)C(=O)C1F (stereo not given) |
| 290 to 292 | CC1=C(C#N)S(=O)c2ccc(C(F)(F)F)cc2N1 (stereo not given) |
| 169 to 171 | Cc1nc(N2CCN(Cc3ccccc3)C2=O)sc1C(=O)NCc1cccc(F)c1 |
| 110 to 112 | COC(=O)c1ccc(OCC2CC(=O)N(c3ccc(C)cc3)C2)cc1 (stereo not given) |
| 138 to 139 | COc1ccc2nc3c(cc2c1)c(Cl)nn3C |
| 80 to 82 | CC(C)C[C@H](NC(=O)OCc1ccccc1)C(=O)NC(C)(C)C(=O)CSCc1ccco1 |
| 157 to 158 | O=c1nc(-c2ccnc(C3CNCCO3)c2)sc2ccccc12 (stereo not given) |
| 109 to 110 | CON=C(C#N)C(=O)Nc1ccc(OC(F)C(F)(F)F)cc1 (stereo not given) |
| 159 to 160 | Cc1oc(C(C)(C)C)nc1CCOc1ccc(CC(OC(C)C)C(=O)O)c2sccc12 (stereo not given) |
| 50 | O=[N+]([O-])c1nccn1C1CCCCO1 (stereo not given) |
| 213 to 214 | COC(=O)c1ccccc1S(=O)(=O)NC(=O)Nc1nc(Cl)cn(C)c1=O |
| 138 to 140 | CCC1(CC)OC(=O)Nc2ccc(/C(=C/C#N)C(C)C)cc21 |
| 88 to 91 | COc1ccc2c(c1)CCC(c1ccncc1)O2 (stereo not given) |
| 196 to 201 | CCCCOCCOc1ccc(-c2ccc3c(c2)C=C(C(=O)O)CCN3C(=O)CNC(C)=O)cc1 |
| 36 | CCCCCNC(CCCCC)=C1C(=O)ON=C1C |
| 72 to 74 | CC(C)(C)C1(C(F)n2cncn2)CO1 (stereo not given) |
| 163 to 164 | CN(c1ccccc1C=CC1=NCCC1)C1CCCCC1 |
| > 320 | CCNC(=O)Nc1ccc2[nH]cc(C(=O)O)c(=O)c2c1 |
| 63 to 90 | COc1cc2c(cc1Nc1ncc(Cl)c(Nc3ccccc3C(=O)OC(C)C)n1)CCN(CCCN(C)C)C(=O)C2 |
| 284 to 286 | COc1c(C)c(OC(=O)c2c(C)c(C)c(OCCCOc3ccc(C(N)=O)cc3)c(C)c2OC)c(C)c(C)c1C(N)=O |
| 310 to 314 | Cc1[nH]c(=O)ccc1-c1ccc(-n2ccnc2)cc1 |

| melting point [°C] | SMILES |
| --- | --- |
| 129 to 132 | COc1ccccc1Oc1c(NS(=O)(=O)c2ccc(C(C)(C)C)cc2)nc(NCCN(C)C)nc1OCCOc1ncc(Br)cn1 |
| 165 | CCOC(=O)C1CCN(C(=O)c2ccc(/C=C/C(=O)O)cc2)CC1 |
| 99 to 100 | c1ccc(Cn2cnc3cncnc32)cc1 |
| > 320 | O=C(Nc1nc2ccc(Cl)cc2s1)c1ccc2cccnc2c1O |
| 138 to 139 | COc1ccc(-c2cc(=O)c3cc(OCCCCCN4CCC(O)CC4)ccc3o2)cc1 |
| > 260 | N[C@@H](CSCc1ccc(C(=O)O)cc1)C(=O)O |
| 241 to 242 | NC1CCN(c2c(F)cc3c(=O)c(C(=O)O)cn(C4CC4)c3c2Cl)C1 (stereo not given) |
| 195 to 196 | N#Cc1ccc(N(Cc2ccc(OS(N)(=O)=O)cc2)n2cnnc2)cc1-c1ccoc1 |
| 177 to 179 | NC(=O)c1sc2ncnc(-c3cccc(NC(=O)Nc4ccncc4)c3)c2c1N |
| 62 to 64 | CC(C)(C(=O)c1ccc(SCCO)cc1)N1CCOCC1 |
| 104 to 106 | O=C1c2cc(Br)ccc2COc2ccccc21 |
| 168 to 170 | COc1cc2c(Nc3cccc(C)c3)ncnc2cc1OCCN1CCOCC1 |
| 145 to 146 | CC(C)(Oc1ccc(CCNC(=O)C=Cc2ccccc2Cl)cc1)C(=O)O |
| 157 to 160 | CC1Nc2cnccc2N(C)n2cccc21 (stereo not given) |
| 170 to 171 | COC(=O)c1ccc(-c2nc(COc3ccc(CO)cc3OC)c(C)o2)cc1 |
| 183 to 185 | O=[N+]([O-])c1cc(C(F)(F)F)cc2c1nc(C(F)(F)F)n2S(=O)(=O)c1ccccc1 |
| 212 to 214 | O=C(Cn1nc(-c2ccccc2O)nc1-c1ccccc1O)NC(CO)CO |
| 256 to 257 | CCOC(=O)Nc1nc(-c2ccccc2)c(-c2nc3ccccc3c(=O)n2-c2ccc(OC)cc2)s1 |
| 110 to 115 | COc1cc2cc(C(=O)N3CC(CCl)c4c3cc(NCCNC(=O)OC(C)(C)C)c3ccccc43)[nH]c2c(OC)c1OC (stereo not given) |
| 117 to 119 | COc1ccc(CNc2nc(Cl)ncc2C(=O)c2ccccn2)cc1Cl |
| 135 to 140 | CCCCC/C=C\C/C=C\CCCCCCCC(=O)Nc1cccc(N(CC(=O)O)CC(=O)O)c1 |
| 113 to 114 | O=C(NCc1ccccc1)c1ccc(Cl)nc1 |
| 98.6 | CC(C)CCCC(C)C1CC=C2C3=C(CCC21C)C1(C)CCC(F)CC1CC3 (stereo not given) |
| 209 to 215 | N#CN(c1ccccc1)c1nc(N(C#N)c2ccccc2)nc(N(C#N)c2ccccc2)n1 |

| melting point [°C] | SMILES |
| --- | --- |
| 122 to 124 | O=[N+]([O-])c1ccc(C(O)C(CO)N2CCC(Cc3ccccc3)CC2)cc1 (stereo not given) |
| 238 | CC(C)C(c1ccc2[nH]c(=O)c(C(=O)O)nc2c1)n1ccnc1 (stereo not given) |
| 42 to 43 | CCN(C(=O)n1nnc2cc(C)ccc21)c1ccccc1 |
| > 300 | O=C(O)C(=O)CC(=O)c1cn(Cc2ccc3ccccc3n2)c2ccccc2c1=O |
| 50 to 51 | C=C1C[C@@H]2C(=O)OC(=O)[C@@H]2C1 |
| 90 to 91 | COc1ccc(C#N)c(F)c1OC(C)=O |
| 276 to 278 | O=C(O)c1cn(C2CC2)c2c(F)c(N3CCC(O)C3)c(F)cc2c1=O (stereo not given) |
| 203 to 206 | NC1=NN(c2ccccn2)C(c2ccccc2)C1 (stereo not given) |
| 139 to 140 | O=S(=O)(Nc1ccc2c(OCc3nc(-c4ccc(F)cc4)sc3Br)cccc2c1)C(F)(F)F |
| > 310 | Nc1nc2ncn([C@H]3C=C[C@@H](O)C3)c2c(=O)[nH]1 (racemic) |
| 118 to 119 | CCOc1cc2c(cc1OCC)C(C(S)(C#N)c1ccccc1)=NCC2 (stereo not given) |
| 165 to 168 | O=C1NC(=O)C(c2cn3c4c(cccc24)C(O)CC3)=C1c1c[nH]c2ccccc12 (stereo not given) |
| 141 to 143 | CCOC(=O)Cc1ccnc(-c2nn(C(C)(C)C)c(N)c2C#N)c1 |
| 288 | O=CNc1nc(NC2CC2)nc(N2CCOCC2)n1 |
| 200 to 201 | Cc1noc(-c2cc3c4ccccc4n(C)c3s2)n1 |
| 118 to 120 | O=C(CON1C(=O)c2ccccc2C1=O)NOCc1ccccc1 |
| 190 | CC1(NC(=O)CN2C(=O)c3ccccc3C2=O)CCCCCC1 |
| 179 | CC(C)(C)c1cc(CCc2ccccc2NC(=O)NCC(c2ccccc2)c2ccccc2)cc(C(C)(C)C)c1O |
| 209 to 211 | Fc1ccc2c(c1)C1=NCCN1C(Cl)=N2 |
| 211 to 214 | O=C(NNS(=O)(=O)c1ccccc1)c1ccc2ncccc2c1 |
| 205 | N[C@@H](CC(C(=O)O)=C1CCCC1)C(=O)O |
| 162 to 164 | CCOC(=O)C1=C(C)NC(c2nccn2Cc2ccccc2)=NC1c1ccc(F)cc1 (stereo not given) |

| SMILES | melting point [°C] |
| --- | --- |
| O=S1(=O)c2cccc3cccc(c23)N1CCCCN1CC=C(c2ccccc2)CC1 | 101 |
| CC(Cc1cccc([N+](=O)[O-])c1)[N+](=O)[O-] (stereo not given) | 56 to 58 |
| CC(C)CN(Cc1nc(-c2ncn3c2CN(C)C(=O)c2c(Cl)cccc2-3)no1)CC(C)C | 125 to 128 |
| CC#CC(=O)Nc1cccc(-c2ccnc3c(C(=O)c4cccs4)cnn23)c1 | 202 to 203 |
| CN1CC[C@@H]2CC(=O)c3cc4c(cc3[C@@H]2C1)OCO4 (relative stereo) | > 250 |
| NS(=O)(=O)c1cc(N(CCCl)CCCl)c([N+](=O)[O-])cc1[N+](=O)[O-] | 153 to 154 |
